Source: patent publication US5235045A, “Non-azo naphthalimide dyes” (priority 1992, dated 1993)

Assays:
[1] = Binding kinetics of dye to synthetic vesicles (fluorescence increase)
Description: All of the vehicles used in these studies were prepared to have a final lipid, egg lecithin+cholesterol concentration of 10 mg/ml. Cholesterol concentrations were varied between 0 and 45 mol % by varying the lipid composition from which the vesicles were produced. The subject dyes were added in 10% aqueous isopropyl alcohol solutions to vesicle suspensions in water. The dyes are non-fluorescent in 10% aqueous isopropy alcohol, but are highly fluorescent in vesicles. The increase in fluorescence was monitored at an excitation wavelength of 460 nm and an emission wavelength of 519 nm. Fluorescence intensity was measured as a function of time, and fit to a standard first-order kinetic plot.

[2] = Bleaching in distearoylphosphatidyl choline vesicles; assay type: physicochemical; conditions: irradiated vesicles
Description: The dye was incorporated into synthetic vesicles as described above. The vesicles were irradiated with a 150-W Oriel xenon arc lamp at a distance of 4 cm from the lens at a thermostated temperature of 20° C. The change in fluorescence intensity with time was determined above, and the results plotted as a standard first order plot.

BHV-1 antigen = test: Surface antigen assays of BHV-1 on FBL cells; assay type: cell-based, Bovine Herpes Virus Type I (BHV-1)
Description: Surface Antigen Assays The BHV-1 virus prepared as above (20480 TCID50) was (i) held as control; (ii) treated with dye (concentrations from 7.5 to 250 ng/ml) in cell culture medium; or (iii) treated with Compound VII and light-treated in cell culture medium. All virus was plated in 96-well flat bottom plates for 24 hours in 5x replicates on FBL cells. At that time the wells were examined for CPE, scored, and 2x wells were fixed in acetone and paraformaldehyde for examination of intracellular and surface BHV-1 antigen, respectively. The cells were treated with 50 μl of an anti-BHV-1 monoclonal antibody (gift of Dr. J. Collins, Diagnostic Laboratory, Colorado State University, School of Veterinary Medicine) used as a common diagnostic reagent, for 30 minutes at room temperature. The cells were further stained with either FITC-labeled anti-mouse or biotinylated anti-mouse and avidin rPE. The samples were placed on slides and read by fluorescent microscopy using a 495 nm excitor filter and 525 long pass emission filter on a Leitz epifluorescent microscope.

[3] = system: Herpes simplex virus type 1; test: Effect of Ed6Br and light on aqueous suspensions of HSV-1 (plaque assay); assay type: cell-based, MacIntyre strain
[4] = system: Vesicular stomatitis Virus (Ogden strain) (VSV), G-protein; assay type: biochemical; conditions: 10.0 μM, 460 J/cm^2
[5] = system: Herpes simplex virus type 1; test: Effect of DiEd6Br and light on aqueous suspensions of HSV-1 (plaque assay); assay type: cell-based, MacIntyre strain
[6] = system: Human immunodeficiency virus (HIV); test: Effect of DiEd6Br and light on HIV (MTT viability of MT-4 cells); assay type: cell-based; conditions: for Optical Density (MTT, MT-4 cells): mean of triplicate, 570 nm
[7] = Tissue bonding of beef muscle strips with DiEd6Br and light; conditions: 0.1 millimolar
From the text: Bonding together of the overlapping surfaces of two strips of swine dura mater and of two thin slices of beef muscle with application of DiEd6Br in Cremophor EL as a carrier and irradiation with 420 # 5 nm light filtered from a xenon arc lamp were studied.
Thin strips approximately 10 cm long, 1 cm wide, and 0.05-0.1 cm thick were sliced from beef steak obtained from a local meat market. Surfaces of the strips of two sample pairs were coated with a stock solution of DiEd6Br in Cremophor EL (0.1 millimolar concentration) and placed together to give approximately 2 cm overlap. One overlapping strip sample was irradiated for 24 hours with water-filtered (IR spectrum absorber) light from a 150 w xenon arc lamp. Beam diameter incident on the sample was approximately 3 cm. The other sample was wrapped in aluminum foil, placed alongside the irradiated sample, and served as dark control.

Gramacidin D = test: Effects of 420 nm radiation on liposomal-bound Gramacidin D and DiEd6Br fluorescence; assay type: biochemical; conditions: 100 J/cm^2, 420 nm; for Tryptophan fluorescence ratio irradiated/unirradiated (IT/DT): 0 μM dye 91.23
[8] = photochemically attenuated virus
[9] = virus and dye, dark control, 7.5 to 250 ng/ml
[10] = 2 G-protein units or 1 G-protein + 2 M-protein units

## CCCCCCNc1c(Br)cc2c3c(cccc13)C(=O)N(CCCCCC)C2=O [Compound VII, 3-bromo-4-(hexyl)amino-N-hexyl-1,8-naphthalimide]
[1]; 0 mol % cholesterol
  rate constant for binding: 0.814 ± 0.005 × 10^-3 s^-1
[1]; 15 mol % cholesterol
  rate constant for binding: 1.020 ± 0.005 × 10^-3 s^-1
[1]; 30 mol % cholesterol
  rate constant for binding: 1.54 ± 0.02 × 10^-3 s^-1
[1]; 45 mol % cholesterol
  rate constant for binding: 2.75 ± 0.01 × 10^-3 s^-1
[2]
  bleaching: do not bleach
  photodegradation of the dye: only very slow photodegradation
BHV-1 antigen; [8]
  internal viral antigen: internal antigen was observed at all concentrations of Compound VII which showed CPE
  surface viral antigen: Surface antigen was observed at all concentrations
BHV-1 antigen; [9]
  internal viral antigen: Internal antigen was observed and correlated with CPE levels
  surface viral antigen: Much surface viral antigen was detected at all dye concentrations
[3]; 1.25 μM, irradiated 20 J/cm2, 420 nm
  PFU/ml: 0 PFU/ml
[3]; 2.5 μM, irradiated 20 J/cm2, 420 nm
  PFU/ml: 0 PFU/ml
[3]; 5 μM, irradiated 20 J/cm2, 420 nm
  PFU/ml: 0 PFU/ml
[3]; 10 μM, irradiated 20 J/cm2, 420 nm
  PFU/ml: 0 PFU/ml
[3]; .078 μM, irradiated 20 J/cm2, 420 nm
  PFU/ml: 3.8 × 10^1 PFU/ml
[3]; .156 μM, irradiated 20 J/cm2, 420 nm
  PFU/ml: 1.8 × 10^1 PFU/ml
[3]; .312 μM, irradiated 20 J/cm2, 420 nm
  PFU/ml: 7.5 × 10^0 PFU/ml
[3]; .625 μM, irradiated 20 J/cm2, 420 nm
  PFU/ml: 0 PFU/ml
[3]; Human alphaherpesvirus 1, light or radiation study, 1.25 μM, irradiated 20 J/cm2, 420 nm, read-out: Log10 Reduction
  log reduction at 1.25 µM: 5.8
[3]; Human alphaherpesvirus 1, light or radiation study, 2.5 μM, irradiated 20 J/cm2, 420 nm, read-out: Log10 Reduction
  log reduction at 2.5 µM: 5.8
[3]; Human alphaherpesvirus 1, light or radiation study, 5 μM, irradiated 20 J/cm2, 420 nm, read-out: Log10 Reduction
  log reduction at 5 µM: 5.8
[3]; Human alphaherpesvirus 1, light or radiation study, 10 μM, irradiated 20 J/cm2, 420 nm, read-out: Log10 Reduction
  log reduction at 10 µM: 5.8
[3]; Human alphaherpesvirus 1, light or radiation study, .078 μM, irradiated 20 J/cm2, 420 nm, read-out: Log10 Reduction
  log reduction at 0.078 µM: 4.22
[3]; Human alphaherpesvirus 1, light or radiation study, .156 μM, irradiated 20 J/cm2, 420 nm, read-out: Log10 Reduction
  log reduction at 0.156 µM: 4.54
[3]; Human alphaherpesvirus 1, light or radiation study, .312 μM, irradiated 20 J/cm2, 420 nm, read-out: Log10 Reduction
  log reduction at 0.312 µM: 4.92
[3]; Human alphaherpesvirus 1, light or radiation study, .625 μM, irradiated 20 J/cm2, 420 nm, read-out: Log10 Reduction
  log reduction at 0.625 µM: 5.8
[3]; as low as 0.078 mM, 420 nm, 20 J/cm2, 2.5% or less of serum proteins
  kill of HSV-1: > 99.99%

## CCCCCCN1C(=O)c2cccc3c(NCCNC(=O)CCCCC(=O)NCCNc4c(Br)cc5c6c(cccc46)C(=O)N(CCCCCC)C5=O)c(Br)cc(c23)C1=O [Compound XLIV]
[4]
  heavier bands: many ill separated heavier bands merging together near
[4]; [10]
  Inferred Crosslinked Species: 2 G-protein
  Inferred Crosslinked Species, Gel mw: 130 kD
[5]; 2.5 μM, not irradiated
  PFU/ml: 1.3 × 10^6 PFU/ml
[5]; 10 μM, not irradiated
  PFU/ml: 1.2 × 10^6 PFU/ml
[5]; .156 μM, not irradiated
  PFU/ml: 1.1 × 10^6 PFU/ml
[5]; .625 μM, not irradiated
  PFU/ml: 1.0 × 10^6 PFU/ml
[5]; Human alphaherpesvirus 1, light or radiation study, 2.5 μM, not irradiated, read-out: Log10 Reduction
  log reduction at 2.5 µM: 0
[5]; Human alphaherpesvirus 1, light or radiation study, 10 μM, not irradiated, read-out: Log10 Reduction
  log reduction at 10 µM: 0.0348
[5]; Human alphaherpesvirus 1, light or radiation study, .156 μM, not irradiated, read-out: Log10 Reduction
  log reduction at 0.156 µM: 0.0725
[5]; Human alphaherpesvirus 1, light or radiation study, .625 μM, not irradiated, read-out: Log10 Reduction
  log reduction at 0.625 µM: 0.114
[5]; Human alphaherpesvirus 1, light or radiation study, Test #1, 2.5 μM, 20 J/cm2, 420 nm, read-out: Log10 Reduction
  log reduction at 2.5 µM: 6
[5]; Human alphaherpesvirus 1, light or radiation study, Test #1, 10 μM, 20 J/cm2, 420 nm, read-out: Log10 Reduction
  log reduction at 10 µM: 6
[5]; Human alphaherpesvirus 1, light or radiation study, Test #1, .156 μM, 20 J/cm2, 420 nm, read-out: Log10 Reduction
  log reduction at 0.156 µM: 6
[5]; Human alphaherpesvirus 1, light or radiation study, Test #1, .625 μM, 20 J/cm2, 420 nm, read-out: Log10 Reduction
  log reduction at 0.625 µM: 6
[5]; Human alphaherpesvirus 1, light or radiation study, Test #2, .0099 μM, 20 J/cm2, 420 nm, read-out: Log10 Reduction
  log reduction at 0.0099 µM: 3.27
[5]; Human alphaherpesvirus 1, light or radiation study, Test #2, .0195 μM, 20 J/cm2, 420 nm, read-out: Log10 Reduction
  log reduction at 0.0195 µM: 4.24
[5]; Human alphaherpesvirus 1, light or radiation study, Test #2, .039 μM, 20 J/cm2, 420 nm, read-out: Log10 Reduction
  log reduction at 0.039 µM: 4.87
[5]; Human alphaherpesvirus 1, light or radiation study, Test #2, .078 μM, 20 J/cm2, 420 nm, read-out: Log10 Reduction
  log reduction at 0.078 µM: 5.87
[5]; Human alphaherpesvirus 1, light or radiation study, Test #2, .156 μM, 20 J/cm2, 420 nm, read-out: Log10 Reduction
  log reduction at 0.156 µM: 5.87
[5]; Test #1, 2.5 μM, 20 J/cm2, 420 nm
  PFU/ml: 0 PFU/ml
[5]; Test #1, 10 μM, 20 J/cm2, 420 nm
  PFU/ml: 0 PFU/ml
[5]; Test #1, .156 μM, 20 J/cm2, 420 nm
  PFU/ml: 0 PFU/ml
[5]; Test #1, .625 μM, 20 J/cm2, 420 nm
  PFU/ml: 0 PFU/ml
[5]; Test #2, .0099 μM, 20 J/cm2, 420 nm
  PFU/ml: 4.0 × 10^2 PFU/ml
[5]; Test #2, .0195 μM, 20 J/cm2, 420 nm
  PFU/ml: 4.3 × 10^1 PFU/ml
[5]; Test #2, .039 μM, 20 J/cm2, 420 nm
  PFU/ml: 9.9 × 10^0 PFU/ml
[5]; Test #2, .078 μM, 20 J/cm2, 420 nm
  PFU/ml: 0 PFU/ml
[5]; Test #2, .156 μM, 20 J/cm2, 420 nm
  PFU/ml: 0 PFU/ml
[5]; as low as 0.0195 mM, 420 nm, 2.5% or less of serum proteins
  kill of HSV-1: > 99.99%
[6]; 1.25 μM, 0 J/cm^2
  Optical Density (MTT, MT-4 cells): 0.541
[6]; 1.25 μM, 20 J/cm^2
  Optical Density (MTT, MT-4 cells): 1.242
[6]; 2.5 μM, 0 J/cm^2
  Optical Density (MTT, MT-4 cells): 0.290
[6]; 2.5 μM, 20 J/cm^2
  Optical Density (MTT, MT-4 cells): 1.309
[6]; 5 μM, 0 J/cm^2
  Optical Density (MTT, MT-4 cells): 0.559
[6]; 5 μM, 20 J/cm^2
  Optical Density (MTT, MT-4 cells): 1.337
[6]; 1.25 mM or greater (so in the source), light treated
  inactivation of HIV: essentially complete inactivation of HIV
[7]; dark control
  bonding of strips: separated under their own weight
[7]; irradiated 24 hours
  bonding of strips: discernable tactile finger pressure was felt when two hands were used to pull the irradiated strip apart, indicating bonding of the strip surface
Gramacidin D; 10 μM
  DiEd6Br fluorescence ratio irradiated/unirradiated (ID/DD): 5.03%
  Tryptophan fluorescence ratio irradiated/unirradiated (IT/DT): 10.57%
Gramacidin D; 20 μM
  DiEd6Br fluorescence ratio irradiated/unirradiated (ID/DD): 9.24%
  Tryptophan fluorescence ratio irradiated/unirradiated (IT/DT): 10.77%
Gramacidin D; 50 μM
  DiEd6Br fluorescence ratio irradiated/unirradiated (ID/DD): 20.26%
  Tryptophan fluorescence ratio irradiated/unirradiated (IT/DT): 14.40%
